Experimental data from US10226452B2, “Benzoxazolone derivatives as acid ceramidase inhibitors, and their use as medicaments” (FONDAZIONE ISTITUTO ITALIANO DI TECNOLOGIA, priority 2014, dated 2019).
Entries after “also recorded” stand apart in the source; their conditions may differ.

Experiments:
AC = AC (Homo sapiens (Human), UniProt Q13510); experiment: AC activity in MeWo human melanoma cells; format: cell-based; details: 25 μM, evident at 30 minutes, lasted up to 3 hours
Procedure: Specifically, FIG. 1 evidences the effects of compound of Example 7 or vehicle (0.1% DMSO in DMEM) on AC activity and ceramide levels in A375 (left panel) or MeWo (right panel) human melanoma cell lines. (A-B) Intact cells were treated with compound of Example 7 (25 μM) or vehicle and AC activity was measured 30 minutes or 3 hours later in cell lysates. (B) Intact cells were exposed to compound of Example 7 (25 μM) for 2 hours or 24 hours and medium chain ceramides (C-D), long chain ceramides (E-F) and dihydroceramides (G-H) were quantified. Results are expressed as mean±s.e.m. (n=3). *p<0.05, **p<0.01, ***p<0.001 vs vehicle, two-way ANOVA followed by Dunnet.
hAC protein preparation (10 μg) was preincubated with inhibitors (final DMSO concentration 1%) in assay buffer (100 mM sodium phosphate, 0.1% Nonidet P-40, 150 mM NaCl, 3 mM DTT, 100 mM sodium citrate, pH 4.5) for 30 min at 37° C. Reactions were started by the addition of 50 μM N-lauroyl ceramide (Nu-Chek Prep, Elysian, Minn.) and carried on for 30 min at 37° C. […] The organic phases were collected, dried under nitrogen and analyzed by UPLC/MS (Acquity, Waters). […]
The [M−H]^− ion was monitored in the selected-ion monitoring mode (m/z values: lauric acid 199, 11-lauroleic acid 197.35). […] Inhibition of AC activity was calculated as reduction of lauric acid in the samples compared to vehicle controls. […]

MMP-2 (h) = MMP-2 (h) (Homo sapiens (Human), UniProt P08253); experiment: Cerep enzyme inhibition screen: MMP-2; format: biochemical; details: mean of two determinations, read-out: Inhibitory activity (% Inh. at 10 μM), mean
MMP-2 (h), sequence (P08253 110-660): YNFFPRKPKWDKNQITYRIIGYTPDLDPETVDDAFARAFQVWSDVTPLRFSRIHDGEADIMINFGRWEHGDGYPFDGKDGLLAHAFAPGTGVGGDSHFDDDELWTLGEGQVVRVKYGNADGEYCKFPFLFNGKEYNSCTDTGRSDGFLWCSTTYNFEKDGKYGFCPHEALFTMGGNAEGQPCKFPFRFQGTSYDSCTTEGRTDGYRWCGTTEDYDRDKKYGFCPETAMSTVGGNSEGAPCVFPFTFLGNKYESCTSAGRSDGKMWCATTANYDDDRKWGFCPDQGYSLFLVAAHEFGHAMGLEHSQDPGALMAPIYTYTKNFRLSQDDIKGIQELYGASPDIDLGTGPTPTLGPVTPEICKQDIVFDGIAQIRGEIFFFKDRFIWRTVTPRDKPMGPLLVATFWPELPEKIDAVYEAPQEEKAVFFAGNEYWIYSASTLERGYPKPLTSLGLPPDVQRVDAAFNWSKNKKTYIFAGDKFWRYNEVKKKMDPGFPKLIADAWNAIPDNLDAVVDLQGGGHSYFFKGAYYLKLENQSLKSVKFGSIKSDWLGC
Excerpt: Compound of Example 25 falling in both Formula (I) and (Ia) was selected to be tested for off-target effects on a set of enzymes that include proteases (aspartic, cysteine, and serine), cyclooxygenases as well as lipoxygenases and group IV phospholipase (sPLA2) (Table 3). [table]

[1] = test system: MAG-hydrolyzing enzymes including MGL, HSL and EL; experiment: MAG-hydrolysing activity ex vivo in mice; set-up: species or system mouse; details: 10 mg-kg^−1 intraperitoneal, 3 h after injection
Procedure: Compound of Example 25 was also tested for its ability to inhibit the hydrolytic degradation of diacylglycerols (DAG) and monoacylglycerols (MAG) in live mice. DAG and MAG hydrolysis is catalyzed by multiple serine lipases, including diacylglycerol lipase (DGL), monoacylglycerol lipase (MGL), hormone-sensitive lipase (HSL), and endothelial lipase. Thus, by monitoring the effects of compound of Example 25 on MAG-hydrolysing activity as well as DAG and MAG levels ex vivo, we can gain important insights as to the ability of the compound to interfere with those lipases in a physiologically relevant setting.
Specifically FIG. 8 evidences the effect of Example 25 or vehicle (DMSO) on MGL activity in brain, liver, fat and heart. MAG-hydrolysing activity was measured 3 h after intraperitoneal injection of compound of Example 25 (10 mg-kg-1). Results are expressed as mean±s.e.m. (n=5).
Tissue was homogenized in ice-cold Tris-HCl (50 mM, pH7.5, 10 vol) containing sucrose (0.32 M). Homogenates were centrifuged at 1,000×g for 10 min, and the supernatants (5 μg of protein) were incubated at 37° C. for 30 min in Tris.HCl (50 mM, pH 7.5, 0.5 mL) containing 10 μM oleoylglycerol (Sigma-Aldrich, St. Louis, Mo.). […] The residues were suspended in 100 μL of chloroform/methanol (1:3, v:v) and analyzed by LC-MS.

AC, sequence (Q13510 22-142): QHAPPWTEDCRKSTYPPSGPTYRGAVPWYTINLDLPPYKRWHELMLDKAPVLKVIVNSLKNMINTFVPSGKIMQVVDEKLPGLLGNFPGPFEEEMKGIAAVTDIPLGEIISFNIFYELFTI
AC, sequence (Q13510 143-395): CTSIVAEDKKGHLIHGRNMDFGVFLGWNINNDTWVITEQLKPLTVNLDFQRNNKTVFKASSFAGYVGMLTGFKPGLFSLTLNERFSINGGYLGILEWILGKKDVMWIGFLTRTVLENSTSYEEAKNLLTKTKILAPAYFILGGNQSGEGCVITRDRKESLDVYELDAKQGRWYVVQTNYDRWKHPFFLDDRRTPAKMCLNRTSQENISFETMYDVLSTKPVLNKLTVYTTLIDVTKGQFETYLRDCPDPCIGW

| Structure (SMILES) | AC activity (AC) | inhibition at 10 µM (MMP-2 (h)) [%] | MAG-hydrolysing activity in brain, liver, fat and heart [1] |
| --- | --- | --- | --- |
| O=C(NCCCCc1ccccc1)n1c(=O)oc2cc(Br)ccc21 [Example 7, 6-Bromo-2-oxo-N-(4-phenylbutyl)-1,3-benzoxazole-3-carboxamide] | reduction in AC activity | – | – |
| O=C(NCCCCc1ccccc1)n1c(=O)oc2cc(-c3ccc(F)cc3)ccc21 [Example 25, 6-(4-Fluorophenyl)-2-oxo-N-(4-phenylbutyl)-1,3-benzoxazole-3-carboxamide] | – | 7.2 | did not cause inhibition of MAG-hydrolysing activity; also recorded: no inhibitory activity |
